Measured values from US20240373829A1, “GENETIC RESISTANCE TO VIRAL DISEASE IN SALMONID FISH” (THE UNIVERSITY COURT OF THE UNIVERSITY OF EDINBURGH, priority 2021, published 2024).

Columns and labels:
IPNV [1] = assay: IPNV viral load (VP2 qRT-PCR) in MLN4924-treated SHK-1 cells; assay type: cell-based, infectious pancreatic necrosis virus; conditions: 100 nM MLN4924 24 hours prior to infection, during the course of infection, vs DMSO only
Protocol: To evaluate the viral load in cells, relative transcript level of IPNV VP2 to ef1a in the total RNAs was analysed by qRT-PCR using Luna Universal One-Step RT-qPCR reagent (NEB, Ipswich, USA) and LightCycler 480 Instrument (Roche, Basel, Switzerland) in duplicates. Each reaction consisted of 0.5 μL RNAs, 1× Reaction Mix, 1× Enzyme Mix, 0.4 μM each primer (Supplementary Table 4) and nuclease-free water up to 10 μL. The thermocycling initiated with reverse transcription at 55° C. for 10 min and initial denaturation at 95° C. for 1 min, followed by 40 cycles of denaturation at 95° C. for 10 sec and extension at 60° C. for 30 sec with plate read, and melt curve analysis. Efficiency and linearity (R^2) of each primer pair were checked using serial dilution of total RNAs in duplicates. The relative viral transcript level of IPNV VP2 versus ef1a in the KO SHK-1 cells compared to wild type SHK-1 cells at each timepoint was calculated using 2^−ΔΔCT.
Lyophilised MLN4924 (pevonedistat) was resuspended in DMSO. MLN4924 was titrated for cytotoxicity on CHSE-214 and SHK-1 cells. […] The impact of the MLN4924 on cell viability was assessed by sampling at 24, 48, 72, and 96 hpi and comparing cell survival in all challenged groups (including the DMSO control) versus the unchallenged control at the same timepoint.

RTG-2 cells = assay: MLN4924 cytotoxicity test (cell viability assay) in RTG-2 cells; assay type: cell-based, rainbow trout (Oncorhynchus mykiss); conditions: wild type RTG-2 cells; 0.1, 1 and 5 uM; 24, 48, 72 and 96 hours post treatment
Protocol: Initially, four different concentrations of MLN4924 0 (DMSO-only), 0.1, 1 and 5 uM, were tested in fresh RTG-2 cells to investigate if they exerted toxicity in wild type RTG-2 cells. A cell viability assay was used to assess any present cytopathic effect at four different time points: 24, 48, 72 and 96 hours post treatment with the four different concentrations of the inhibitor.

DNA and RNA viruses = conditions: in vitro, multitude of DNA and RNA viruses (ref 15); cited from earlier work
SHK-1 cells = assay: MLN4924 cell viability in SHK-1 cells; assay type: cell-based, Atlantic salmon; conditions: MLN4924 treatment compared to DMSO-treated controls
Protocol: Lyophilised MLN4924 (pevonedistat) was resuspended in DMSO. MLN4924 was titrated for cytotoxicity on CHSE-214 and SHK-1 cells. SHK-1 or CHSE-214 cells were seeded at 80% confluency and treated with 0 (DMSO only), 100 nM, 1 μM or 5 μM MLN4924 for 24 hours prior to inoculation with IPNV at an MOI of 0.01. The impact of the MLN4924 on cell viability was assessed by sampling at 24, 48, 72, and 96 hpi and comparing cell survival in all challenged groups (including the DMSO control) versus the unchallenged control at the same timepoint.

IPNV viral proteins = assay: Western blot of IPNV viral proteins from MLN4924-treated SHK-1 cells; assay type: cell-based, infectious pancreatic necrosis virus; conditions: SHK-1 cells treated with MLN4924 or DMSO, 120 h, MOI 0.01
Protocol: To evaluate the infectivity of viral output, cells and supernatant were harvested at 120 hpi and assessed by TCID50 on naïve CHSE-214 cells. For semi-quantification of viral protein output, western blot against viral proteins was performed. At 120 hpi, supernatant from a 150 mm dishes containing SHK-1 cells treated with either 100 nM MLN4924 or DMSO for 24 hours before infection with IPNV at an MOI of 0.01 was collected, sterile filtered, and ultra-centrifuged at 22000 x g for 1 hour. The ultra-centrifuged virus pellet from the supernatant was resuspended in Laemmli buffer. The cell-associated virus was also analysed by harvesting cells in Laemmli buffer. These samples were separated by PAGE (4-15% Mini-Protean, BIORAD), transferred onto nitrocellulose membrane, and the viral protein was visualised using a monoclonal antibody that recognises all IPN viral proteins, and secondary LICOR antibodies.

IPNV [2] = assay: Supernatant infectivity assay (TCID50) of MLN4924 and IPNV-treated RTG-2 cells; assay type: cell-based, infectious pancreatic necrosis virus
Protocol: Wild type RTG-2 cells were seeded in 4× quadruplicates in 24-well plates and were allowed to settle for 24 hours. The four quadruplicates were then treated with DMSO-only, 0.1, 1 and 5 uM of MLN4924, respectively. 24 hours after the MLN4924 treatment, the inhibitor inoculum was removed and IPNV in a dose of 10-5 TCID50/mL was inoculated in the cells, along with the four doses of MLN4924. Supernatants were collected at 48 and 72 hpi, and were stored at −80° C. until use.
TCID50 (Median Tissue Culture Infectious Dose) assay was used to assess the titer of the viral supernatants, harvested from the MLN4924 and IPNV-treated cells at 72 hpi. Firstly, 20,000 cells/well were seeded in wells of a 96-well plate (in four rows of 10 wells for each supernatant, for 4 replicates) and were allowed to settle and grow overnight. The following day, the media was removed with a multichannel pipette and replaced with serial 10-fold dilutions (starting from the neat original viral supernatants up to 10^−7 dilution). The latter were prepared in 2% FBS media (with penicillin streptomycin). The seeded cells were inoculated with these serial dilutions (four replicates per virus dilution, 100 uL/96-well). The last two wells of each row were used as controls, meaning that no virus was added there, only media. The 96-well plate was incubated at 15° C. for the duration of the experiment. The Cytopathic Effect (CPE) of the viral infection was assessed using CellTiter-Glo® Luminescent Cell Viability Assay (Promega, Madison, USA), at 30 hpi. The 50% endpoint titer was further calculated using the Reed and Muench method^16.
MLN4924 inhibitor was used to inhibit nae1 activity. Four supernatants of each dose group collected from the MLN4924 and IPNV-treated cells at 72 hpi were tested in two independent TCID50 infectivity assays followed by a cell viability assay at 30 hpi and use of the Reed and Muench method to analyze the cytopathic effect present in the wells.

Compound: NS(=O)(=O)OC[C@@H]1C[C@@H](n2ccc3c(N[C@H]4CCc5ccccc54)ncnc32)C[C@@H]1O [MLN4924]
- IPNV RNA copy number (IPNV [1]): little difference
- cytotoxicity (cell viability assay) (RTG-2 cells): none of the doses were cytotoxic
- anti-viral activity (DNA and RNA viruses): broad-acting anti-viral activity
- cell viability (SHK-1 cells): no associated decrease in cell viability
- abundance of IPNV viral proteins (western blot) (IPNV viral proteins): notable decrease
- productive IPNV viral output (TCID50) (IPNV [2]; 0.1 μM MLN4924, 72 hpi supernatants): effect similar to the DMSO-only cell group
- productive IPNV viral output (TCID50) (IPNV [2]; 1 μM MLN4924, 72 hpi supernatants, vs DMSO-only): marked drop
- productive IPNV viral output (TCID50) (IPNV [2]; 5 μM MLN4924, 72 hpi supernatants, vs DMSO-only): marked drop
